From US20150374844A1, “NOVEL PH -SWITCHABLE PEPTIDES FOR MEMBRANE INSERTION AND PORE FORMATION” (UNIVERSITY OF PENNSYLVANIA, priority 2013, published 2015)
No end group written: not given here.

B1: PSPF-EKG (peptide)
peptide: WSELAKGLSELAKGLSELAKGLSELAKG

Columns and labels:
[1] = tested on: Red Blood Cells (RBCs); assay: Human red blood cell hemolysis assay (hemoglobin release)
Procedure: Human Red Blood hemolysis assay was carried out as described below.
About 5 ml human blood from healthy individuals were transferred into a 50 ml centrifuge tube and either re-suspended in 35 ml buffer pH 5.4 (150 mM NaCl, 20 mM MES) or pH 7.5 (150 mM NaCl, 20 mM Hepes). Red Blood Cells (RBCs) were washed 3 times with the appropriate buffer and finally re-suspended in a total of 50 ml buffer (pH 5.4 or 7.5). For the assay 175 μl of buffer solution (pH 5.4 or 7.5) was added into each well of a clear-bottom 96-well plate followed by 50 μl of re-suspended RBCs (approx. 2.5×10^7 cells) in the appropriate buffer (for RBC transfer wide bore pipet tips were used to avoid cell damage). Test PSPF peptides (New England Peptide TM) at the appropriate concentration were diluted in 25 μl PBS and then added to the cells. All steps were done with chilled buffers and on ice. The suspension was then mixed 6-8 times by pipetting with wide bore tips, the plate was covered and incubated at 37° C. for indicated time.
After incubation the cells were centrifuged for 5 min at 500×g and 150 μl of the supernatant was transferred into a new 96-well clear-bottom plate. Absorbance at 541 nm was measured and hemolysis was normalized to RBCs which have been incubated in the presence of 1% Triton X-100 (100% hemolysis).
Red blood cell (RBC) lysis assays was used to screen the functional efficacy of the PSPF peptides upon delivery (Table 5). The release of ATP, miRNA and hemoglobin has been studied at both pH 7.5 and 5.4.
A desirable peptide should also negate membrane disruption, as assessed by leakage of proteins such as hemoglobin at both pH values. Therefore the peptides were first screened for hemolytic activity at both pH 7.5 and pH 5.4.

[2] = siRNA co-transfection assay, cell viability; format: cell-based; parameters: concentration or dose not given beside the values; settings: co-transfection of peptide and siRNA
Source text: The protocol and siRNA reagent (target SSB gene) described in the following publication was followed: Bartz R, Fan H, Zhang J, Innocent N, Cherrin C, Beck S C, Pei Y, Momose A, Jadhav V, Tellers D M, Meng F, Crocker L S, Sepp-Lorenzino L, Barnett S F. Effective siRNA delivery and target mRNA degradation using an amphipathic peptide to facilitate pH-dependent endosomal escape. Biochem J. 2011; 435:475-87.

[3] = molecular target: the molecule itself; assay: CD thermal denaturation of the hexamer, Gibbs-Helmholtz fit, pH 5.5
Procedure: (§1) Furthermore, thermal denaturation by circular dichroism (CD) was used to study the thermal stability of the PSPF-EKG hexamer at multiple concentrations (2 μM, 4 μM and 20 μM), and at both pH 7.4 (FIG. 8A) and pH 5.5 (FIG. 8B). For each pH, to the curves were analyzed according to the Gibbs-Helmholtz Equation, using global least squares fitting of ΔHm, Tm and baselines. Tm was chosen as a global parameter defined with a reference concentration of 4 μM. ΔCp was also included, but over the range of experimental data examed, this parameter was not well defined.

[4] = molecular target: the molecule itself; assay: CD thermal denaturation of the hexamer, Gibbs-Helmholtz fit, pH 7.4
Procedure: as §1

[5] = molecular target: the molecule itself; assay: size exclusion chromatography, self-association, pH 7.4 (Table 7 prints 6.6)
Procedure: Size exclusion chromatography (SEC) of 100 μM PSPF-EKG and 100 μM PSPF-DKG were measured by AKTA FPLC machine (GE) using a Superdex 75 column (GE) eluted at pH 7.4 (50 mM Tris, 150 mM NaCl) and pH 5.5 (50 mM MES, 150 mM NaCl) respectively, at 25° C. Four standards were used: blue dextran (2,000,000 g/mol), carbonic anhydrase (29,000 g/mol), cytochrome C (12,400 g/mol) and aprotinin (6,500 g/mol). In order to test the effect of salt concentration upon peptide elution, the elutions of PSPF-EKG were also measured at pH 7.4 (50 mM Tris, 2M NaCl) and pH 5.5 (50 mM MES, […]), respectively.
Size exclusion chromatography—The association state of the PSPF peptide PSPF-EKG was initially investigated by size exclusion chromatography (SEC) using a Superdex 75 column (GE Healthcare) eluted at pH 7.4 (150 mM NaCl, 50 mM Tris) and pH 5.5 (150 mM NaCl, 50 mM MES) respectively. In addition, PSPF-DKG was also investigated to determine the effect of substituting Asp for Glu on the stability of the water-soluble bundle at each pH. To determine the approximate oligomerization states, four standards were used, shown by blue eluting peaks in FIG. 4: blue dextran (2,000,000 g/mol), carbonic anhydrase (29,000 g/mol), cytochrome C (12,400 g/mol) and aprotinin (6,500 g/mol).

[6] = pH 5.4, compared to triton-x-100
[7] = pH 7.5, compared to triton-x-100

Molecule | Hemoglobin Release ([1]; pH 5.4) | Hemoglobin Release ([1]; pH 7.5) | viability [2] [%] | Hemoglobin Release [1, 6] | Hemoglobin Release [1, 7] | [PSPF-EKG] at 50% fold and 300 K [3] [µM] | [PSPF-EKG] at 50% fold and 300 K [4] [µM] | apparent molecular weight, fold of calculated molecular weight [5] [fold]
WSHLAQALSHLAQALSHLAQALSHLAQA [PSPF-HQA, WSHLAQA LSHLAQA LSHLAQA LSHLAQA] | none | none | 105 | – | – | – | – | –
WSELAQALSELAQALSELAQALSELAQA [PSPF-EQA, WSELAQA LSELAQA LSELAQA LSELAQA] | none | none | 103 | – | – | – | – | –
WSDLAQALSDLAQALSDLAQALSDLAQA [PSPF-DQA, WSDLAQA LSDLAQA LSDLAQA LSDLAQA] | – | – | 100 | none | none | – | – | –
WSDLAKGLSDLAKGLSDLAKGLSDLAKG [PSPF-DKG, WSDLAKG LSDLAKG LSDLAKG LSDLAKG] | – | – | 104 | none | none | – | – | –
WSHLAKALSHLAKALSHLAKALSHLAKA [PSPF-HKA, WSHLAKA LSHLAKA LSHLAKA LSHLAKA] | none | none | 97 | – | – | – | – | –
WSDLAQGLSDLAQGLSDLAQGLSDLAQG [PSPF-DQG, WSDLAQG LSDLAQG LSDLAQG LSDLAQG] | – | – | 98 | none | none | – | – | –
WSELAKGLSELAKGLSELAKGLSELAKG [PSPF-EKG, WSELAKG LSELAKG LSELAKG LSELAKG] | – | – | 102 | – | – | – | – | –
WSHLAQGLSHLAQGLSHLAQGLSHLAQG [PSPF-HQG, WSHLAQG LSHLAQG LSHLAQG LSHLAQG] | none | none | 104 | – | – | – | – | –
WSHLAKGLSHLAKGLSHLAKGLSHLAKG [PSPF-HKG, WSHLAKG LSHLAKG LSHLAKG LSHLAKG] | none | none | 102 | – | – | – | – | –
WSDLAKALSDLAKALSDLAKALSDLAKA [PSPF-DKA, WSDLAKA LSDLAKA LSDLAKA LSDLAKA] | – | – | 101 | none | none | – | – | –
WSELAQGLSELAQGLSELAQGLSELAQG [PSPF-EQG, WSELAQG LSELAQG LSELAQG LSELAQG] | none | none | 105 | – | – | – | – | –
WSELAKALSELAKALSELAKALSELAKA [PSPF-EKA, WSELAKA LSELAKA LSELAKA LSELAKA] | none | none | 105 | – | – | – | – | –
B1 | – | – | – | – | – | 0.31 | 0.14 | 6.5
